Measurements from patent US9493448B2, “Cycloalkane derivatives” (Daiichi Sankyo Company, Limited, priority 2012, dated 2016).
Structures can show the parent of a compound that is named as a salt.

Molecular target: hNav 1.7 (Homo sapiens (Human), UniProt Q15858)
Assay: Electrophysiological evaluation, automated patch clamp IonWorks Quattro (Population Patch Clamp mode)
Format: cell-based
Conditions: HEK293A cells stably expressing hNav 1.7/β1/β2; response to second depolarization pulse, pre-pulse potential set to V1/2; read-out: hNav1.7 IC50

hNav 1.7, sequence (Q15858 whole entry): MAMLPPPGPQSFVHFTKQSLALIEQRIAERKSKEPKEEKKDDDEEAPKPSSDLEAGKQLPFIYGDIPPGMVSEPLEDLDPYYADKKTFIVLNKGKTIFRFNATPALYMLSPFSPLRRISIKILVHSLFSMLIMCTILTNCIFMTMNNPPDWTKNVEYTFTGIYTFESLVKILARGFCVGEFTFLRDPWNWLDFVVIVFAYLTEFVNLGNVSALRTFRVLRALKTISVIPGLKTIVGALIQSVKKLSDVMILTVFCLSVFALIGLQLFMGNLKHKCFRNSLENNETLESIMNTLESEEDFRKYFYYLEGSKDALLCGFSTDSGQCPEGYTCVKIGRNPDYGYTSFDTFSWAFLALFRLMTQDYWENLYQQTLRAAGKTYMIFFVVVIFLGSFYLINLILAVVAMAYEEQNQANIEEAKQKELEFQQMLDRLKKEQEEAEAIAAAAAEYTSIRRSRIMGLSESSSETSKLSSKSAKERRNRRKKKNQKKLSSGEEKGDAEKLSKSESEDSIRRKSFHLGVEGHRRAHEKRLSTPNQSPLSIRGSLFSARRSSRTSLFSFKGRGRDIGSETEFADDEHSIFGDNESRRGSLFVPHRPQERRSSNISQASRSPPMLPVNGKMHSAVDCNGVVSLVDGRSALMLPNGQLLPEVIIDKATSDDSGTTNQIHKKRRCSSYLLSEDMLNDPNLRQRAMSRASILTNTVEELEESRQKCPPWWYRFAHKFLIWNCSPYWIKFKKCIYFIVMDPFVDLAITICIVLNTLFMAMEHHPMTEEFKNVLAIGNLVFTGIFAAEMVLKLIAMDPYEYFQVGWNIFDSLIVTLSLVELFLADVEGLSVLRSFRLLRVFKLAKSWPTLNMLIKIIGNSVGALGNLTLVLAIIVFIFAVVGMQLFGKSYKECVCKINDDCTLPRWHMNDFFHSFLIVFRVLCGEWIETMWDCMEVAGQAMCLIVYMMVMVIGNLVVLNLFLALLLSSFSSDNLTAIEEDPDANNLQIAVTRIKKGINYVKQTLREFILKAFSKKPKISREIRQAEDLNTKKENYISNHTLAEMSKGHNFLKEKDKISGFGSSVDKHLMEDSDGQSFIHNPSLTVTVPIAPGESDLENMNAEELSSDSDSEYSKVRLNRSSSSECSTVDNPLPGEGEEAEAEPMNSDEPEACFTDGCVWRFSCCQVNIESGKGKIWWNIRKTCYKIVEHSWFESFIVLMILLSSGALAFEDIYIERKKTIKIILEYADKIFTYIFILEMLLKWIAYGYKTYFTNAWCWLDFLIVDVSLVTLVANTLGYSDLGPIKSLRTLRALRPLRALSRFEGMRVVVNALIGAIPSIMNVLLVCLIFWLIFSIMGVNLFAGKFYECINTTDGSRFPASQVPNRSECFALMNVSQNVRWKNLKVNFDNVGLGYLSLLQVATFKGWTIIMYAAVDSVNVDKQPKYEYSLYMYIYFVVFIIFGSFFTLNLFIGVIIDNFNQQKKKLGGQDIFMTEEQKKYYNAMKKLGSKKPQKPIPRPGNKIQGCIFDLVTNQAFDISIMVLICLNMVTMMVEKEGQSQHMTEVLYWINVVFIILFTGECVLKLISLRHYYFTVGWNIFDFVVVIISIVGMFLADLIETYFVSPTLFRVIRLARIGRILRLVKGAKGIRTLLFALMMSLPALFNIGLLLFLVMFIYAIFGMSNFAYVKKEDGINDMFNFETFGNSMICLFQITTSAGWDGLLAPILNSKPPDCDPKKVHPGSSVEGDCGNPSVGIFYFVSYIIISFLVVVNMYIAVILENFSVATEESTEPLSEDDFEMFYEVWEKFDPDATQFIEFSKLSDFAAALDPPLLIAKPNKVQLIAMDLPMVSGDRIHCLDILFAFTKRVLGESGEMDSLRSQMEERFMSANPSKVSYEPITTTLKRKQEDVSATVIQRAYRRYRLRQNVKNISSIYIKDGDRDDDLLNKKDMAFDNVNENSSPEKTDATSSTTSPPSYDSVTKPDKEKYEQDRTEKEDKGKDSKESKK
hNav 1.7, sequence (Q07699 19-218 partner): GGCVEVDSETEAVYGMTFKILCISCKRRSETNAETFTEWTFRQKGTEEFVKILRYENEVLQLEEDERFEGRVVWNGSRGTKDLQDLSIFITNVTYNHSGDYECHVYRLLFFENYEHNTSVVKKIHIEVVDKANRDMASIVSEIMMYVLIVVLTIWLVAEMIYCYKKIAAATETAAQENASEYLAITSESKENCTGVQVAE
hNav 1.7, sequence (O60939 30-215 partner): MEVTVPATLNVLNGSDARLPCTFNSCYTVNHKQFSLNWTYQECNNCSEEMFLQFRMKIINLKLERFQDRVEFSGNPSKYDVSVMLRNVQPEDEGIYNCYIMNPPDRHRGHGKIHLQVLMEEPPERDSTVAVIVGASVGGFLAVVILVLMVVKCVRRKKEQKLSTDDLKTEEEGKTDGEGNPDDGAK

| SMILES | IC50 [nM] |
| --- | --- |
| O=S(=O)(Nc1ncns1)c1cc(F)c(O[C@H]2CCC[C@@H]2c2ccccc2)cc1F (relative stereo) [Example 6, 2,5-Difluoro-4-{[(1S*,2R*)-2-phenylcyclopentyl]oxy}-N-(1,2,4-thiadiazol-5-yl)benzenesulfonamide] | 610 |
| O=S(=O)(Nc1ncns1)c1cc(F)c(O[C@H]2CCCCC[C@@H]2c2ccccc2)cc1F (relative stereo) [Example 7, 2,5-Difluoro-4-{[(1S*,2R*)-2-phenylcycloheptyl]oxy}-N-(1,2,4-thiadiazol-5-yl)benzenesulfonamide] | 450 |
| Cn1nccc1[C@H]1CCCCC[C@@H]1Oc1cc(F)c(S(=O)(=O)Nc2ncns2)cc1F (relative stereo) [Example 9, 2,5-Difluoro-4-{[(1S*,2R*)-2-(1-methyl-1H-pyrazol-5-yl)cycloheptyl]oxy}-N-(1,2,4-thiadiazol-5-yl)benzenesulfonamide] | 14 |
| Cn1nccc1[C@H]1CCCC[C@@H]1Oc1cc(F)c(S(=O)(=O)Nc2cscn2)cc1Cl (relative stereo) [Example 10, 5-Chloro-2-fluoro-4-{[(1S*,2R*)-2-(1-methyl-1H-pyrazol-5-yl)cyclohexyl]oxy}-N-(1,3-thiazol-4-yl)benzenesulfonamide Na salt] | 30 |
| Cn1nccc1[C@H]1CCC[C@@H]1Oc1cc(F)c(S(=O)(=O)Nc2cscn2)cc1Cl (relative stereo) [Example 11, 5-Chloro-2-fluoro-4-{[(1S*,2R*)-2-(1-methyl-1H-pyrazol-5-yl)cyclopentyl]oxy}-N-(1,3-thiazol-4-yl)benzenesulfonamide Na salt] | 10 |
| CCn1nccc1[C@H]1CCCC[C@@H]1Oc1cc(F)c(S(=O)(=O)Nc2cscn2)cc1Cl (relative stereo) [Example 12, 5-Chloro-4-{[(1S*,2R*)-2-(1-ethyl-1H-pyrazol-5-yl)cyclohexyl]oxy}-2-fluoro-N-(1,3-thiazol-4-yl)benzenesulfonamide] | 120 |
| O=S(=O)(Nc1cscn1)c1cc(Cl)c(O[C@H]2CCCC[C@@H]2n2ccnc2)cc1F (relative stereo) [Example 13, 5-chloro-2-fluoro-4-{[(1S*,2S*)-2-(1H-imidazol-1-yl)cyclohexyl]oxy}-N-(1,3-thiazol-4-yl)benzenesulfonamide] | 82 |
| Cn1nccc1[C@H]1CCC[C@@H]1Oc1ccc(S(=O)(=O)Nc2nccs2)cc1F (relative stereo) [Example 16, 3-Fluoro-4-{[(1S*,2R*)-2-(1-methyl-1H-pyrazol-5-yl)cyclopentyl]oxy}-N-(1,3-thiazol-2-yl)benzenesulfonamide] | 230 |
| Cn1nccc1[C@H]1CCC[C@@H]1Oc1ccc(S(=O)(=O)Nc2cc(F)ncn2)cc1F (relative stereo) [Example 17, 3-Fluoro-N-(6-fluoropyrimidin-4-yl)-4-{[(1S*,2R*)-2-(1-methyl-1H-pyrazol-5-yl)cyclopentyl]oxy}benzenesulfonamide] | 510 |
| Cn1nccc1[C@H]1CCC[C@@H]1Oc1ccc(S(=O)(=O)Nc2ccnc(F)n2)cc1F (relative stereo) [Example 18, 3-Fluoro-N-(2-fluoropyrimidin-4-yl)-4-{[(1S*,2R*)-2-(1-methyl-1H-pyrazol-5-yl)cyclopentyl]oxy}benzenesulfonamide] | 170 |
| Cn1nccc1[C@H]1CCC[C@@H]1Oc1cc(Cl)c(S(=O)(=O)Nc2ccncn2)cc1F (relative stereo) [Example 19, 2-Chloro-5-fluoro-4-{[(1S*,2R*)-2-(1-methyl-1H-pyrazol-5-yl)cyclopentyl]oxy}-N-(pyrimidin-4-yl)benzenesulfonamide] | 510 |
| Cn1nccc1[C@H]1CCC[C@@H]1Oc1ccc(S(=O)(=O)Nc2ccncn2)cc1C(F)(F)F (relative stereo) [Example 21, 4-{[(1S*,2R*)-2-(1-Methyl-1H-pyrazol-5-yl)cyclopentyl]oxy}-N-(pyrimidin-4-yl)-3-(trifluoromethyl)benzenesulfonamide] | 250 |
| O=S(=O)(Nc1ccncn1)c1cc(F)c(O[C@H]2CCCC[C@@H]2c2ccn[nH]2)cc1F (relative stereo) [Example 22, 2,5-Difluoro-4-{[(1S*,2R*)-2-(1H-pyrazol-5-yl)cyclohexyl]oxy}-N-(pyrimidin-4-yl)benzenesulfonamide] | 520 |
| Cn1nccc1[C@H]1CCC[C@@H]1Oc1cc(F)c(S(=O)(=O)Nc2ccnc(F)n2)cc1F (relative stereo) [Example 24, 2,5-Difluoro-N-(2-fluoropyrimidin-4-yl)-4-{[(1S*,2R*)-2-(1-methyl-1H-pyrazol-5-yl)cyclopentyl]oxy}benzenesulfonamide] | 23 |
| Cn1nccc1[C@H]1CCC[C@@H]1Oc1ccc(S(=O)(=O)Nc2ccncn2)cc1C#N (relative stereo) [Example 26, 3-Cyano-4-{[(1S*,2R*)-2-(1-methyl-1H-pyrazol-5-yl)cyclopentyl]oxy}-N-(pyrimidin-4-yl)benzenesulfonamide] | 200 |
| Nc1n[nH]cc1[C@H]1CCCC[C@@H]1Oc1cc(F)c(S(=O)(=O)Nc2ccncn2)cc1F (relative stereo) [Example 34, 4-{[(1S*,2R*)-2-(3-Amino-1H-pyrazol-4-yl)cyclohexyl]oxy}-2,5-difluoro-N-(pyrimidin-4-yl)benzenesulfonamide] | 250 |
| Nc1cc([C@H]2CCC[C@@H]2Oc2cc(F)c(S(=O)(=O)Nc3ccncn3)cc2F)ccn1 (relative stereo) [Example 36, 4-{[(1S*,2R*)-2-(2-Aminopyridin-4-yl)cyclopentyl]oxy}-2,5-difluoro-N-(pyrimidin-4-yl)benzenesulfonamide] | 500 |
| O=S(=O)(Nc1ccncn1)c1cc(F)c(O[C@H]2CCCC[C@@H]2c2cccnc2)cc1F (relative stereo) [Example 39, 2,5-Difluoro-4-{[(1S*,2R*)-2-(pyridin-3-yl)cyclohexyl]oxy}-N-(pyrimidin-4-yl)benzenesulfonamide] | 1000 |
| Cn1cncc1[C@H]1CCCC[C@@H]1Oc1cc(F)c(S(=O)(=O)Nc2ccncn2)cc1F (relative stereo) [Example 49, 2,5-Difluoro-4-{[(1S*,2R*)-2-(1-methyl-1H-imidazol-5-yl)cyclohexyl]oxy}-N-(pyrimidin-4-yl)benzenesulfonamide] | 660 |
| O=S(=O)(Nc1ccncn1)c1cc(F)c(O[C@H]2CCCC[C@@H]2c2ccnnc2)cc1F (relative stereo) [Example 53, 2,5-Difluoro-4-{[(1S*,2R*)-2-(pyridazin-4-yl)cyclohexyl]oxy}-N-(pyrimidin-4-yl)benzenesulfonamide] | 330 |
| CCc1cc(S(=O)(=O)Nc2ccncn2)c(F)cc1O[C@H]1CCC[C@@H]1c1ccnn1C (relative stereo) [Example 61, 5-Ethyl-2-fluoro-4-{[(1S*,2R*)-2-(1-methyl-1H-pyrazol-5-yl)cyclopentyl]oxy}-N-(pyrimidin-4-yl)benzenesulfonamide] | 2.6 |
| Cc1ncccc1[C@H]1CCCC[C@@H]1Oc1cc(F)c(S(=O)(=O)Nc2ccncn2)cc1F (relative stereo) [Example 70, 2,5-Difluoro-4-{[(1S*,2R*)-2-(2-methylpyridin-3-yl)cyclohexyl]oxy}-N-(pyrimidin-4-yl)benzenesulfonamide] | 330 |
| CCc1cc(S(=O)(=O)Nc2ccncn2)ccc1O[C@H]1CCCC[C@@H]1c1c[nH]nc1N (relative stereo) [Example 89, 4-{[(1S*,2R*)-2-(3-Amino-1H-pyrazol-4-yl)cyclohexyl]oxy}-3-ethyl-N-(pyrimidin-4-yl)benzenesulfonamide] | 130 |
| Cn1nncc1[C@H]1CCCC[C@@H]1Oc1cc(F)c(S(=O)(=O)Nc2ccncn2)cc1F (relative stereo) [Example 92, 2,5-Difluoro-4-{[(1S*,2R*)-2-(1-methyl-1H-1,2,3-triazol-5-yl)cyclohexyl]oxy}-N-(pyrimidin-4-yl)benzenesulfonamide] | 1000 |
| Cn1nccc1[C@@H]1[C@@H](Oc2cc(F)c(S(=O)(=O)Nc3ccncn3)cc2F)CCC1(C)C (relative stereo) [Example 99, 4-{[(1S*,2R*)-3,3-Dimethyl-2-(1-methyl-1H-pyrazol-5-yl)cyclopentyl]oxy}-2,5-difluoro-N-(pyrimidin-4-yl)benzenesulfonamide] | 410 |
| Cn1nccc1[C@@H]1[C@@H](Oc2cc(F)c(S(=O)(=O)Nc3ccncn3)cc2F)CCC[C@H]1OCc1ccccc1 (relative stereo) [Example 100, 4-{[(1S*,2S*,3R*)-3-(Benzyloxy)-2-(1-methyl-1H-pyrazol-5-yl)cyclohexyl]oxy}-2,5-difluoro-N-(pyrimidin-4-yl)benzenesulfonamide] | 380 |
| Cn1nccc1[C@H]1C[C@@H](F)C[C@@H]1Oc1cc(F)c(S(=O)(=O)Nc2ccncn2)cc1F (relative stereo) [Example 106, 2,5-Difluoro-4-{[(1S*,2R*,4R*)-4-fluoro-2-(1-methyl-1H-pyrazol-5-yl)cyclopentyl]oxy}-N-(pyrimidin-4-yl)benzenesulfonamide] | 270 |
| Cn1nccc1[C@H]1C[C@H](OCc2ccccc2)CC[C@@H]1Oc1cc(F)c(S(=O)(=O)Nc2ccncn2)cc1F (relative stereo) [Example 112, 4-{[(1S*,2R*,4R*)-4-(Benzyloxy)-2-(1-methyl-1H-pyrazol-5-yl)cyclohexyl]oxy}-2,5-difluoro-N-(pyrimidin-4-yl)benzenesulfonamide] | 310 |
| Cn1nccc1[C@@H]1[C@@H](Oc2cc(F)c(S(=O)(=O)Nc3ccncn3)cc2F)CCCC1(F)F (relative stereo) [Example 117, 4-{[(1S*,2R*)-3,3-Difluoro-2-(1-methyl-1H-pyrazol-5-yl)cyclohexyl]oxy}-2,5-difluoro-N-(pyrimidin-4-yl)benzenesulfonamide] | 750 |
| CO[C@H]1C[C@H](Oc2cc(F)c(S(=O)(=O)Nc3ccncn3)cc2F)[C@@H](c2ccnn2C)C1 (relative stereo) [Example 121, 2,5-Difluoro-4-{[(1S*,2R*,4R*)-4-methoxy-2-(1-methyl-1H-pyrazol-5-yl)cyclopentyl]oxy}-N-(pyrimidin-4-yl)benzenesulfonamide] | 930 |
